Measured values from the NIST ThermoML archive (doi:10.1016/j.jct.2016.09.005).
Numbers after ± are expanded uncertainties.

Details: 5500 kPa, Brillouin Light Scattering

Compound: CCCCCC [hexane]
- speed of sound (300.09 K, Liquid): 1111.2 ± 15 m/s
- speed of sound (353.12 K, Liquid): 898.5 ± 12 m/s
- speed of sound (403.17 K, Liquid): 705.9 ± 9.8 m/s
- speed of sound (453.15 K, Liquid): 513 ± 7.2 m/s
- speed of sound (503.13 K, Liquid): 323.7 ± 4.6 m/s
- speed of sound (547.89 K, Fluid (supercritical or subcritical phases)): 158.25 ± 2.4 m/s
- speed of sound (578.22 K, Fluid (supercritical or subcritical phases)): 154.04 ± 2.4 m/s
- speed of sound (608.05 K, Fluid (supercritical or subcritical phases)): 178.03 ± 2.7 m/s
- speed of sound (636.04 K, Fluid (supercritical or subcritical phases)): 194.98 ± 2.9 m/s
